Measured values reported in the NIST ThermoML archive (doi:10.1021/je900550v).

Details: 101.33 kPa, Liquid; for speed of sound: Pulse-echo method; for mass density: Vibrating tube method

CCCCC(=O)[O-].C[NH2+]CCO [2-hydroxy-N-methylethanaminium pentanoate]
Details	mass density [kg/m3]	speed of sound [m/s]	viscosity [mPa·s]
278.15 K	1029.68	1616.6	–
278.4 K	1029.52	1615.6	–
278.65 K	1029.35	1614.7	–
278.9 K	1029.18	1613.8	–
279.15 K	1029.01	1612.8	–
279.4 K	1028.85	1611.9	–
279.65 K	1028.68	1611	–
279.9 K	1028.51	1610.1	–
280.15 K	1028.35	1609.1	–
280.4 K	1028.18	1608.2	–
280.65 K	1028.01	1607.3	–
280.9 K	1027.85	1606.4	–
281.15 K	1027.68	1605.5	–
281.4 K	1027.51	1604.6	–
281.65 K	1027.34	1603.7	–
281.9 K	1027.18	1602.8	–
282.15 K	1027.01	1601.9	–
282.4 K	1026.84	1601	–
282.65 K	1026.67	1600.1	–
282.9 K	1026.51	1599.2	–
283.15 K	1026.34	1598.3	–
283.4 K	1026.17	1597.5	–
283.65 K	1026.01	1596.6	–
283.9 K	1025.84	1595.7	–
284.15 K	1025.67	1594.8	–
284.4 K	1025.5	1593.9	–
284.65 K	1025.34	1593.1	–
284.9 K	1025.17	1592.2	–
285.15 K	1025	1591.3	–
285.4 K	1024.83	1590.5	–
285.65 K	1024.66	1589.6	–
285.9 K	1024.5	1588.8	–
286.15 K	1024.33	1587.9	–
286.4 K	1024.16	1587.1	–
286.65 K	1023.99	1586.2	–
286.9 K	1023.83	1585.4	–
287.15 K	1023.66	1584.5	–
287.4 K	1023.49	1583.7	–
287.65 K	1023.32	1582.8	–
287.9 K	1023.15	1582	–
288.15 K	1022.99	1581.2	450.93
288.4 K	1022.82	1580.3	–
288.65 K	1022.65	1579.5	–
288.9 K	1022.48	1578.7	–
289.15 K	1022.31	1577.8	–
289.4 K	1022.14	1577	–
289.65 K	1021.97	1576.2	–
289.9 K	1021.81	1575.3	–
290.15 K	1021.64	1574.5	–
290.4 K	1021.47	1573.7	–
290.65 K	1021.3	1572.9	368.78
290.9 K	1021.13	1572	–
291.15 K	1020.96	1571.2	–
291.4 K	1020.79	1570.4	–
291.65 K	1020.62	1569.6	–
291.9 K	1020.45	1568.8	–
292.15 K	1020.28	1568	–
292.4 K	1020.12	1567.2	–
292.65 K	1019.95	1566.3	–
292.9 K	1019.78	1565.5	–
293.15 K	1019.61	1564.7	319.63
293.4 K	1019.44	1563.9	–
293.65 K	1019.27	1563.1	–
293.9 K	1019.1	1562.3	–
294.15 K	1018.93	1561.5	–
294.4 K	1018.76	1560.7	–
294.65 K	1018.59	1559.9	–
294.9 K	1018.42	1559.1	–
295.15 K	1018.25	1558.3	–
295.4 K	1018.08	1557.5	–
295.65 K	1017.91	1556.7	273.03
295.9 K	1017.74	1555.9	–
296.15 K	1017.57	1555.1	–
296.4 K	1017.4	1554.3	–
296.65 K	1017.23	1553.5	–
296.9 K	1017.06	1552.7	–
297.15 K	1016.89	1551.9	–
297.4 K	1016.72	1551.1	–
297.65 K	1016.55	1550.3	–
297.9 K	1016.38	1549.6	–
298.15 K	1016.21	1548.8	234.44
298.4 K	1016.03	1548	–
298.65 K	1015.86	1547.2	–
298.9 K	1015.69	1546.4	–
299.15 K	1015.52	1545.6	–
299.4 K	1015.35	1544.8	–
299.65 K	1015.19	1544	–
299.9 K	1015.02	1543.3	–
300.15 K	1014.85	1542.5	–
300.4 K	1014.69	1541.7	–
300.65 K	1014.52	1540.9	205.32
300.9 K	1014.36	1540.1	–
301.15 K	1014.19	1539.3	–
301.4 K	1014.03	1538.5	–
301.65 K	1013.86	1537.8	–
301.9 K	1013.7	1537	–
302.15 K	1013.53	1536.2	–
302.4 K	1013.36	1535.4	–
302.65 K	1013.2	1534.6	–
302.9 K	1013.03	1533.9	–
303.15 K	1012.86	1533.1	175.84
303.4 K	1012.7	1532.3	–
303.65 K	1012.53	1531.5	–
303.9 K	1012.37	1530.7	–
304.15 K	1012.2	1530	–
304.4 K	1012.03	1529.2	–
304.65 K	1011.87	1528.4	–
304.91 K	1011.7	1527.6	–
305.15 K	1011.53	1526.8	–
305.4 K	1011.37	1526.1	–
305.65 K	1011.19	1525.3	147.42
305.9 K	1011.03	1524.5	–
306.15 K	1010.86	1523.8	–
306.4 K	1010.69	1523	–
306.65 K	1010.52	1522.2	–
306.9 K	1010.36	1521.5	–
307.15 K	1010.19	1520.7	–
307.4 K	1010.02	1519.9	–
307.65 K	1009.85	1519.1	–
307.9 K	1009.68	1518.4	–
308.15 K	1009.51	1517.6	133.08
308.4 K	1009.34	1516.8	–
308.65 K	1009.18	1516.1	–
308.9 K	1009.01	1515.3	–
309.15 K	1008.84	1514.5	–
309.4 K	1008.67	1513.8	–
309.65 K	1008.5	1513	–
309.9 K	1008.33	1512.2	–
310.15 K	1008.16	1511.4	117.28
310.4 K	1007.99	1510.7	–
310.65 K	1007.82	1509.9	–
310.91 K	1007.65	1509.1	–
311.16 K	1007.48	1508.3	–
311.4 K	1007.31	1507.6	–
311.65 K	1007.14	1506.8	–
311.91 K	1006.97	1506	–
312.16 K	1006.8	1505.3	–
312.41 K	1006.63	1504.5	–
312.66 K	1006.46	1503.7	–
312.91 K	1006.29	1503	–
313.15 K	–	–	102.38
313.16 K	1006.12	1502.2	–
313.4 K	1005.95	1501.4	–
313.66 K	1005.78	1500.7	–
313.9 K	1005.61	1499.9	–
314.15 K	1005.44	1499.1	–
314.4 K	1005.27	1498.3	–
314.65 K	1005.09	1497.6	–
314.9 K	1004.92	1496.8	–
315.15 K	1004.75	1496	91.92
315.41 K	1004.58	1495.3	–
315.65 K	1004.4	1494.5	–
315.91 K	1004.24	1493.8	–
316.16 K	1004.07	1493	–
316.41 K	1003.89	1492.2	–
316.66 K	1003.72	1491.5	–
316.91 K	1003.55	1490.7	–
317.16 K	1003.38	1489.9	–
317.4 K	1003.21	1489.2	–
317.66 K	1003.04	1488.4	–
317.91 K	1002.86	1487.6	–
318.15 K	–	–	80.38
318.16 K	1002.69	1486.9	–
318.41 K	1002.52	1486.1	–
318.65 K	1002.35	1485.3	–
318.9 K	1002.18	1484.6	–
319.16 K	1002	1483.8	–
319.41 K	1001.83	1483.1	–
319.65 K	1001.66	1482.3	–
319.91 K	1001.49	1481.5	–
320.16 K	1001.32	1480.8	–
320.41 K	1001.14	1480	–
320.65 K	1000.97	1479.2	70.74
320.91 K	1000.8	1478.5	–
321.15 K	1000.62	1477.7	–
321.41 K	1000.45	1476.9	–
321.66 K	1000.28	1476.1	–
321.9 K	1000.1	1475.4	–
322.15 K	999.932	1474.6	–
322.41 K	999.756	1473.8	–
322.65 K	999.586	1473.1	–
322.91 K	999.412	1472.3	–
323.15 K	–	–	66.02
323.16 K	999.237	1471.6	–
323.41 K	999.06	1470.8	–
323.65 K	998.891	1470	–
323.91 K	998.715	1469.2	–
324.16 K	998.543	1468.5	–
324.41 K	998.367	1467.7	–
324.65 K	998.196	1467	–
324.9 K	998.022	1466.2	–
325.16 K	997.846	1465.4	–
325.4 K	997.672	1464.7	–
325.66 K	997.495	1463.9	–
325.9 K	997.325	1463.1	–
326.16 K	997.148	1462.4	–
326.41 K	996.977	1461.6	–
326.66 K	996.8	1460.8	–
326.9 K	996.626	1460.1	–
327.16 K	996.452	1459.3	–
327.4 K	996.278	1458.5	–
327.66 K	996.103	1457.8	–
327.9 K	995.927	1457	–
328.15 K	995.753	1456.2	–
328.41 K	995.577	1455.5	–
328.66 K	995.401	1454.7	–
328.9 K	995.229	1453.9	–
329.16 K	995.05	1453.2	–
329.4 K	994.879	1452.4	–
329.65 K	994.701	1451.6	–
329.9 K	994.528	1450.8	–
330.16 K	994.354	1450.1	–
330.41 K	994.177	1449.3	–
330.66 K	993.999	1448.5	–
330.91 K	993.824	1447.8	–
331.16 K	993.649	1447	–
331.41 K	993.472	1446.2	–
331.66 K	993.296	1445.5	–
331.91 K	993.121	1444.7	–
332.16 K	992.945	1443.9	–
332.41 K	992.768	1443.2	–
332.66 K	992.592	1442.4	–
332.91 K	992.415	1441.6	–
333.16 K	992.239	1440.8	–
333.41 K	992.064	1440.1	–
333.66 K	991.886	1439.3	–
333.91 K	991.71	1438.5	–
334.16 K	991.536	1437.8	–
334.41 K	991.358	1437	–
334.66 K	991.18	1436.2	–
334.91 K	991.004	1435.5	–
335.16 K	990.827	1434.7	–
335.41 K	990.651	1434	–
335.66 K	990.472	1433.2	–
335.91 K	990.295	1432.4	–
336.16 K	990.117	1431.7	–
336.41 K	989.938	1430.9	–
336.66 K	989.761	1430.1	–
336.9 K	989.584	1429.3	–
337.16 K	989.407	1428.6	–
337.4 K	989.229	1427.8	–
337.66 K	989.051	1427	–
337.9 K	988.872	1426.3	–
338.15 K	988.703	1425.6	–
